Laboratory results: article PMC9856044 (Biomolecules, 2023)

Tests used:
Fibroblasts = experiment: MTT cytotoxicity assay, normal human skin fibroblasts; type: cell-based; conditions: Fibroblast, 72 h incubation, ± SD
Experimental: (§1) Human cervical carcinoma HeLa (GIBCO BRL, Invitrogen, Waltham, MA, USA), human melanoma MDA-MB-435S and human ovarian adenocarcinoma SK-OV-3 (ATCC-LGC Standards GmbH, Wesel, Germany) cell lines were purchased from indicated cell culture banks. Normal human skin fibroblasts were isolated from the upper arm of a donor at the Neurochemical Laboratory, Department of Chemistry and Biochemistry, School of Medicine, University of Zagreb. HeLa, MDA-MB-435S and fibroblasts were grown in Dulbecco’s Modified Eagle’s Medium (DMEM; Sigma-Aldrich, St. Louis, MI, USA) while the SK-OV-3 cell line was grown in McCoy’s 5A medium (Capricorn Scientific, Ebsdorfergrund, Germany). All media were supplemented with 10% fetal bovine serum (FBS; Sigma-Aldrich) and 50 I.U./mL penicillin and 50 μg/mL streptomycin. Cells were cultured in a humidified atmosphere of 5% CO2 at 37 °C and were sub-cultured every 3–4 days. HeLa, MDA-MB-435S, SK-OV-3 cells and fibroblasts were seeded in 96 well plates. Twenty-four hours later the cells were treated, in quadruplicate, with different concentrations of compounds (dissolved in DMSO, kept at 4 °C and protected from light). Following 72 h of incubation at 37 °C, the medium was aspired and modified 3-(4,5-dimethylthiazol-2-yl)-2,5-diphenyltetrazolium bromide (MTT) assay was used to determine the cytotoxic effect of the tested compounds. Three hours later, formazan crystals were dissolved in DMSO (0.17 mL/well), the plates were mechanically agitated for 20 min and the optical density at 600 nm was determined on a microtiter plate reader (Awareness Technology Inc., Palm City, FL, USA). The experiments were repeated three times.

[1] = Solubility and aggregation (UV/Vis characterization); type: physicochemical; conditions: sodium cacodylate buffer, I = 0.05 mol dm^−3, pH = 7.0; UV/Vis
Experimental: The UV/vis spectra were recorded on a Varian Cary 100 Bio spectrophotometer (Agilent, Santa Clara, CA, USA), CD spectra on JASCO J815 spectrophotometer (ABL&E Handels GmbH, Wien, Austria) and fluorescence spectra on a Varian Cary Eclipse spectrophotometer (Agilent, Santa Clara, CA, USA) at 25 °C using appropriate 1 cm path quartz cuvettes.
Studied compounds, 1–6 were soluble (c = 8 × 10^−4 mol dm^−3) in DMSO. […] Therefore, the stock solution of 2 was prepared fresh before use. The experiments were done in aqueous buffer (sodium cacodylate buffer, I = 0.05 mol dm^−3; pH = 7.0).
However, the shape of UV/Vis spectra of cyanine 2 changed with increasing concentration (calibration experiment in Figure S2 in SI). In addition to the dominant maximum at 432 nm (which most likely corresponds to the monomer form of the dye), the absorption band at 413 nm becomes more intense (Figure S2 in SI). Presumably, it corresponds to the aggregated form (H-aggregate). Based on the existence of an absorption band at 432 nm, only the monomer dye form is visible at high temperature (95 °C) (Figure S8b in SI). However, after cooling the solution to 25 °C, an additional band appears at 413 nm, which corresponds to the aggregated dye form.

SK-OV-3 cells = experiment: MTT cytotoxicity assay, SK-OV-3; type: cell-based; conditions: Homo sapiens, SK-OV-3, 72 h incubation, ± SD
Experimental: as §1

[2] = biological target: Tel22 (5′-AGGG(TTAGGG)3–3′) G-quadruplex; experiment: Fluorimetric titration with Tel22 in sodium cacodylate buffer (Na+ solution); type: binding, human
Experimental: (§2) Materials. Polynucleotides were purchased as noted: poly A–poly U, calf thymus ctDNA, poly(dAdT)2 and poly(dGdC)2 (Sigma-Aldrich, St. Louis, MI, USA). Polynucleotides were dissolved in Na-cacodylate buffer, I = 0.05 mol dm^−3, pH = 7.0. The calf thymus ctDNA was additionally sonicated and filtered through a […]. Polynucleotide concentration was determined spectroscopically as the concentration of phosphates. Spectrophotometric titrations were performed at pH = 7.0 (I = 0.05 mol dm^−3, sodium cacodylate buffer) by adding aliquots of polynucleotide solution into the solution of the studied compound for fluorimetric experiments and CD experiments were done by adding aliquots of the compound stock solution into the solution of a polynucleotide. In fluorimetric experiments, an excitation wavelength of λexc = 425, 431, 423, 427, 406 and 407 nm, respectively, was used to avoid the inner filter effect caused due to increasing absorbance of the polynucleotide. Emission was collected in the range λem = 400–700 nm. Values for Ka obtained by processing titration data using the Scatchard equation [27], all have satisfactory correlation coefficients (≥0.98).
(§3) Thermal melting curves for DNA, RNA and their complexes with studied compounds were determined as previously described by following the absorption change at 260 nm as a function of temperature. The absorbance of the ligands was subtracted from every curve and the absorbance scale was normalized. Tm values are the midpoints of the transition curves determined from the maximum of the first derivative and checked graphically by the tangent method. The ∆Tm values were calculated by subtracting Tm of the free nucleic acid from Tm of the complex. Every ∆Tm value here reported was the average of two measurements. The error in ∆Tm is ±0.5 °C. 5′-AGGG(TTAGGG)3–3′(Tel22) was obtained from IDT (Integrated DNA Technologies, Coralville, IA, USA). Tel22 was dissolved in 0.1 M either in sodium cacodylate or potassium phosphate buffer. The starting Tel22 oligonucleotide solution was first heated up to 95 °C for 10 min, then slowly cooled to 10 °C at the cooling rate of 1 °C/min to allow DNA oligonucleotide to adopt a G-quadruplex structure. The G-quadruplex structure was confirmed by thermal melting and CD spectra. The concentration of G quadruplex was expressed in terms of oligonucleotide structure. In fluorimetric titrations, aliquots of Tel 22 solution were added to the solution of ligands (c ~ 2 × 10^−7 M, in SI).
(§4) Binding constants (log Ka) and stoichiometry of complexes were calculated from the fluorimetric data using non-linear least-square program SPECFIT [46], in the concentration range that corresponded to 20–80% complex formed.

[3] = biological target: Tel22 (5′-AGGG(TTAGGG)3–3′) G-quadruplex; experiment: Fluorimetric titration with Tel22 in potassium phosphate buffer (K+ solution); type: binding, human
Experimental: as §2, §3, §4

[4] = Tel22, sodium cacodylate buffer, pH = 7.0, I = 0.1 mol dm^−3, SPECFIT fit of fluorescence titration

Row | Compound | IC50 (Fibroblasts) | Aggregation in aqueous buffer [1] | IC50 (SK-OV-3 cells) | logKa1 (L + G ⇆ LG) [2, 4] | logKa2 (LG + G ⇆ LG2) [2, 4] | Selectivity for G-quadruplex over duplex DNA ([2]; binding affinities Tel22 vs duplex DNA, in both the Na+ and K+ solutions) | logKa (L + G ⇆ LG, 1:1 complex) ([3]; Tel22, potassium phosphate buffer, pH = 7.0, I = 0.1 mol dm^−3, SPECFIT fit) | log Ka (indicated by steeper slope of titration curves) ([3]; Tel22, K+ solution, no accurate fit possible)
1 | CN1/C(=C/c2[se]c3ccccc3[n+]2C)Sc2ccccc21 [Compound 3, 3-methyl-2-((3-methylbenzo[d]thiazol-2(3H)-ylidene)methyl)benzo[d][1,3]selenazol-3-ium methosulphate] | 2.38 ± 0.161 µM | do not form aggregates | 0.548 ± 0.102 µM | 7.26 ± 0.41 | 5.93 ± 0.47 | 100 fold | 6.88 ± 0.05 | 
2 | C[n+]1c(/C=C2\Sc3ccccc3N2CCCS)[se]c2ccccc21 [Compound 5, 2-((3-(3-mercaptopropyl)benzo[d]thiazol-2(3H)-ylidene)methyl)-3-methylbenzo[d][1,3]selenazol-3-ium methosulphate] | > 40 µM | significantly aggregate | 29.6 ± 5.72 µM |  |  |  |  | ≥ 7
